{"source": "paper PMC11899342", "about": "“Novel Triazeneindole Antibiotics: Synthesis and Hit-to-Lead Optimization” (International Journal of Molecular Sciences, 2025)", "key": {"MRSA clinical isolates": {"system": "MRSA clinical isolates", "test": "MIC by broth microdilution against multidrug-resistant MRSA clinical isolates", "assay_type": "cell-based, Staphylococcus aureus", "conditions": "for MIC: Staphylococcus aureus, MRSA, read-out: MIC", "in_short": "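Multidrug-resistant clinical MRSA isolates, 1 × 10^6 CFU/mL suspension in Mueller Hinton broth, broth microdilution with compounds at final 1, 0.5, 0.25 and 0.125 mg/L. Incubated 18 h at 37 °C; MIC taken as lowest concentration with no visible growth, triplicate.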"}, "MRSA": {"system": "MRSA", "test": "Selectivity index (average IC50 on eukaryotic cells / average MIC on MRSA)", "assay_type": "cell-based, Staphylococcus aureus", "conditions": "average IC50 on eukaryotic cells divided by average MIC on MRSA", "experimental": "The selectivity index was calculated for each compound as the average IC50 on eukaryotic cells divided by the average MIC on MRSA (Table 2)."}, "[1]": {"test": "Solubility in water by HPLC", "assay_type": "physicochemical", "conditions": "water, kinetic from dmso stock", "experimental": "The solubility of the compounds in water was assessed using HPLC analysis. Two 1.0 mg portions of the test compounds were dissolved in 10 μL of dimethyl sulfoxide; 1.0 mL of acetonitrile was added to one sample (standard), and 1.0 mL of water was added to the second sample (tested sample). Both vials were mixed in a shaker for 5 min, then centrifuged at 10,000 rpm for 5 min. The supernatants were collected and analyzed using Agilent 1290 Infinity (Agilent Technologies, Santa Clara, CA, USA) with a YMC-Triart C18 50 × 2.0 mm, 1.9 μm column. The concentration of the test compound in water was determined by comparing the peak areas of the standard (concentration 1.0 mg/mL) and the tested sample."}, "[2]": {"system": "HepG2 human liver carcinoma cells", "test": "MTT cytotoxicity (hepatotoxicity) on HepG2", "assay_type": "cell-based", "conditions": "Homo sapiens, HepG2, 24 h", "experimental": "(§1) The primary screening of 22 substances was performed on human embryonic fibroblasts (HEFs). […] The HepG2 cell line was obtained from the American Type Culture Collection (ATCC cat. # HB-8065). The primary HEF cells (normal human embryonic fibroblasts) were derived from human embryonic stem cells. The cells were cultured in DMEM/F12 (1:1) medium containing 10% fetal bovine serum (Invitrogen, Carlsbad, CA, USA) at 37 °C and 5% CO2, according to standard mammalian tissue culture protocols and sterile technique. […] The incubation time with the substance was 24 h for all substances and cell lines. Cell detachment by trypsin, centrifugation, and counting in a hemocytometer were performed 16 h before the addition of the substance. For correct counting of the HepG2 cells, the cell suspension was passed through a syringe needle to get rid of cell aggregates. The cells were placed in the wells of a 96-well plate. The number of cells was selected according to the properties of the cell line and the final optical density in the experiment. Fibroblasts and hepatocytes were used in the amount of 10 thousand cells per well in 100 μL of DMEM/F12 medium supplemented with 10% fetal bovine serum. The substances were added to 100 µL of medium in the wells so that the final concentrations were 50, 25, 12.5, 6.25, 3.125, and 1.62 mg/L. The final well volume was 200 µL. The medium containing fetal bovine serum, without added substances, was used as a negative control. After 24 h, excessive amounts of medium were discarded. A total of 30 µL of MTT solution (5 mg/mL in PBS) was added to each well. After the precipitation of formazan crystals (3 h incubation), they were dissolved using 100 μL of dimethyl sulfoxide. The optical density (OD) was measured at 570 nm using a microplate reader (Eppendorf). For every condition, the cell viabilities were assessed in at least three independent experiments for every cell culture. Cell survival was calculated using the following formula:(OD of treated cells − OD blank)/(OD of control cells − OD blank) × 100%, where OD blank represents the OD values in wells without cells but with the addition of the MTT and DMSO solutions. The results were presented in the form of cytotoxicity curves, and the graphs were also plotted in a Microsoft Excel program; the calculation of the IC50 half-maximal inhibition concentration values was performed in a GraphPad Prism 6.0 (GraphPad Software Inc., San Diego, CA, USA) program, based on the equations of the cytotoxicity curves."}, "[3]": {"system": "human embryonic fibroblasts (HEFs)", "test": "MTT cytotoxicity on human embryonic fibroblasts", "assay_type": "cell-based", "conditions": "Homo sapiens, Fibroblast, 24 h, ND = non-toxic in tested concentrations (up to 50 mg/L)", "experimental": "as §1"}}, "note": "Like-named read-outs stand apart in the source and are kept apart here."}
{"compound": "CCOC(=O)c1[nH]c2ccccc2c1/N=N/N1CCN(C)CC1", "note": "[BX-SI001, Ethyl (E)-3-((4-methylpiperazin-1-yl)diazenyl)-1H-indole-2-carboxylate]", "values": [{"measurement": "MIC Range Against 8 MRSA Strains", "setting": "MRSA clinical isolates; 8 multidrug-resistant MRSA clinical isolates, tested 0.125-1 mg/L", "result": 1, "unit": "mg/L"}, {"measurement": "MIC", "setting": "MRSA clinical isolates; Table S4, MRSA strain 1", "result": 0.5, "unit": "µg/mL"}, {"measurement": "MIC", "setting": "MRSA clinical isolates; Table S4, MRSA strain 2", "result": 1, "unit": "µg/mL"}, {"measurement": "MIC", "setting": "MRSA clinical isolates; Table S4, MRSA strain 3", "result": 1, "unit": "µg/mL"}, {"measurement": "MIC", "setting": "MRSA clinical isolates; Table S4, MRSA strain 4", "result": 1, "unit": "µg/mL"}, {"measurement": "MIC", "setting": "MRSA clinical isolates; Table S4, MRSA strain 5", "result": 0.5, "unit": "µg/mL"}, {"measurement": "MIC", "setting": "MRSA clinical isolates; Table S4, MRSA strain 6", "result": 0.5, "unit": "µg/mL"}, {"measurement": "MIC", "setting": "MRSA clinical isolates; Table S4, MRSA strain 7", "result": 1, "unit": "µg/mL"}, {"measurement": "MIC", "setting": "MRSA clinical isolates; Table S4, MRSA strain 8", "result": 1, "unit": "µg/mL"}, {"measurement": "MIC", "setting": "MRSA clinical isolates; Table S4, MRSA strain 9", "result": 1, "unit": "µg/mL"}, {"measurement": "MIC", "setting": "MRSA clinical isolates; Table S4, MRSA strain 10", "result": 1, "unit": "µg/mL"}, {"measurement": "MIC", "setting": "MRSA clinical isolates; Table S4, MRSA strain 12", "result": 1, "unit": "µg/mL"}, {"measurement": "MIC", "setting": "MRSA clinical isolates; Table S4, MRSA strain 13", "result": 1, "unit": "µg/mL"}, {"measurement": "MIC", "setting": "MRSA clinical isolates; Table S4, MRSA strain 14", "result": 1, "unit": "µg/mL"}, {"measurement": "MIC", "setting": "MRSA clinical isolates; Table S4, MRSA strain 15", "result": 1, "unit": "µg/mL"}, {"measurement": "MIC", "setting": "MRSA clinical isolates; Table S4, MRSA strain 16", "result": 0.5, "unit": "µg/mL"}, {"measurement": "MIC", "setting": "MRSA clinical isolates; Table S4, MRSA strain 17", "result": 1, "unit": "µg/mL"}, {"measurement": "MIC", "setting": "MRSA clinical isolates; Table S4, MRSA strain 18", "result": 1, "unit": "µg/mL"}, {"measurement": "MIC", "setting": "MRSA clinical isolates; Table S4, MRSA strain 21", "result": 1, "unit": "µg/mL"}, {"measurement": "MIC", "setting": "MRSA clinical isolates; Table S4, MRSA strain 23", "result": 1, "unit": "µg/mL"}, {"measurement": "MIC", "setting": "MRSA clinical isolates; Table S4, MRSA strain 24", "result": 1, "unit": "µg/mL"}, {"measurement": "MIC", "setting": "MRSA clinical isolates; Table S4, MRSA strain 25", "result": 1, "unit": "µg/mL"}, {"measurement": "MIC", "setting": "MRSA clinical isolates; Table S4, MRSA strain 26", "result": 0.5, "unit": "µg/mL"}, {"measurement": "MIC", "setting": "MRSA clinical isolates; Table S4, MRSA strain 27", "result": 1, "unit": "µg/mL"}, {"measurement": "MIC", "setting": "MRSA clinical isolates; Table S4, MRSA strain 28", "result": 1, "unit": "µg/mL"}, {"measurement": "MIC", "setting": "MRSA clinical isolates; Table S4, MRSA strain 29", "result": 1, "unit": "µg/mL"}, {"measurement": "MIC", "setting": "MRSA clinical isolates; Table S4, MRSA strain 30", "result": 1, "unit": "µg/mL"}, {"measurement": "MIC", "setting": "MRSA clinical isolates; Table S4, MRSA strain 31", "result": 1, "unit": "µg/mL"}, {"measurement": "MIC", "setting": "MRSA clinical isolates; Table S4, MRSA strain 34", "result": 1, "unit": "µg/mL"}, {"measurement": "MIC", "setting": "MRSA clinical isolates; Table S4, MRSA strain 35", "result": 1, "unit": "µg/mL"}, {"measurement": "MIC", "setting": "MRSA clinical isolates; Table S4, MRSA strain 36", "result": 1, "unit": "µg/mL"}, {"measurement": "MIC", "setting": "MRSA clinical isolates; Table S4, MRSA strain 40", "result": 1, "unit": "µg/mL"}, {"measurement": "MIC", "setting": "MRSA clinical isolates; Table S4, MRSA strain 41", "result": 1, "unit": "µg/mL"}, {"measurement": "MIC", "setting": "MRSA clinical isolates; Table S4, MRSA strain 42", "result": 1, "unit": "µg/mL"}, {"measurement": "MIC", "setting": "MRSA clinical isolates; Table S4, MRSA strain 43", "result": 1, "unit": "µg/mL"}, {"measurement": "MIC", "setting": "MRSA clinical isolates; Table S4, MRSA strain 44", "result": 1, "unit": "µg/mL"}, {"measurement": "MIC", "setting": "MRSA clinical isolates; Table S4, MRSA strain 45", "result": 1, "unit": "µg/mL"}, {"measurement": "MIC", "setting": "MRSA clinical isolates; Table S4, MRSA strain 46", "result": 1, "unit": "µg/mL"}, {"measurement": "MIC", "setting": "MRSA clinical isolates; Table S4, MRSA strain 48", "result": 1, "unit": "µg/mL"}, {"measurement": "MIC", "setting": "MRSA clinical isolates; Table S4, MRSA strain 49", "result": 1, "unit": "µg/mL"}, {"measurement": "MIC", "setting": "MRSA clinical isolates; Table S4, MRSA strain 50", "result": 1, "unit": "µg/mL"}, {"measurement": "MIC", "setting": "MRSA clinical isolates; Table S4, MRSA strain 51", "result": 1, "unit": "µg/mL"}, {"measurement": "Selectivity Index", "setting": "MRSA", "result": 19}, {"measurement": "solubility at 5 min", "setting": "[1]; read-out: Solubility in water, mass concentration", "result": 90.5, "unit": "µg/mL"}, {"measurement": "solubility at 5 min", "setting": "[1]; read-out: Solubility in water, molar concentration", "result": 280, "unit": "µM"}, {"measurement": "IC50", "setting": "[2]", "result": 22, "unit": "µg/mL"}, {"measurement": "IC50", "setting": "[3]", "result": 19, "unit": "µg/mL"}]}
